Measured values reported in patent US20260265246A1 (ICAHN SCHOOL OF MEDICINE AT MOUNT SINAI, priority 2021, published 2026).
Read-outs that look alike come from different tables or passages of the source.

Tests used:
[1] = biological target: T1, 5HT2A receptor (Homo sapiens, UniProt P28223); test: biochemical; type: binding; set-up: expressed in transfected cells; crude membranes
[2] = biological target: T1, 5HT2A receptor; test: cell-based; set-up: expressed in transfected cells; host or cells: HEK293T cells, transient co-transfection; details: for Emax: HEK-293T
[3] = biological target: T1, 5HT2A receptor; test: cell-based; set-up: expressed in transfected cells; host or cells: HEK293T cells, transient co-transfection; details: for Emax: HEK-293T; remark: listed apart in the source
[4] = 5HT2A Ki (nM), secondary radioligand binding, Ki from IC50 by Cheng-Prusoff
[5] = BRET2 Gαq dissociation, HEK293T cells, read-out: 5HT2A Gq EC50
[6] = BRET2 Gαq dissociation, HEK293T cells, normalized to 5-HT, read-out: 5HT2A Gq Emax (%)
[7] = 5HT2A β-Arr EC50 (nM), BRET1 beta-arrestin2 recruitment, HEK293T cells
[8] = BRET1 beta-arrestin2 recruitment, HEK293T cells, normalized to 5-HT, read-out: 5HT2A β-Arr Emax (%)
[9] = 5HT2A Gq EC50 (nM), BRET2 Gαq dissociation, HEK293T cells
[10] = secondary radioligand binding, Ki from IC50 by Cheng-Prusoff, read-out: 5HT2A Ki
[11] = BRET1 beta-arrestin2 recruitment, HEK293T cells, read-out: 5HT2A β-Arr EC50
[12] = 5HT2A Ki (nM), secondary binding assay, Cheng-Prusoff
[13] = 5HTA Gq EC50 (nM), BRET2 Gαq dissociation, HEK293T
[14] = read-out: 5HTA Gq Emax (%), BRET2 Gαq dissociation, HEK293T, normalized to 5-HT
[15] = 5HT2A β-Arr EC50 (nM), BRET1 beta-arrestin2 recruitment, HEK293T
[16] = read-out: 5HT2A β-Arr Emax (%), BRET1 beta-arrestin2 recruitment, HEK293T, normalized to 5-HT
[17] = BRET2 Gαq dissociation, HEK293T, read-out: 5HTA Gq EC50
[18] = BRET2 Gαq dissociation, HEK293T, normalized to 5-HT, read-out: 5HTA Gq Emax (%)
[19] = BRET1 beta-arrestin2 recruitment, HEK293T, normalized to 5-HT, read-out: 5HT2A β-Arr Emax (%)

T1 sequence (P28223 whole entry): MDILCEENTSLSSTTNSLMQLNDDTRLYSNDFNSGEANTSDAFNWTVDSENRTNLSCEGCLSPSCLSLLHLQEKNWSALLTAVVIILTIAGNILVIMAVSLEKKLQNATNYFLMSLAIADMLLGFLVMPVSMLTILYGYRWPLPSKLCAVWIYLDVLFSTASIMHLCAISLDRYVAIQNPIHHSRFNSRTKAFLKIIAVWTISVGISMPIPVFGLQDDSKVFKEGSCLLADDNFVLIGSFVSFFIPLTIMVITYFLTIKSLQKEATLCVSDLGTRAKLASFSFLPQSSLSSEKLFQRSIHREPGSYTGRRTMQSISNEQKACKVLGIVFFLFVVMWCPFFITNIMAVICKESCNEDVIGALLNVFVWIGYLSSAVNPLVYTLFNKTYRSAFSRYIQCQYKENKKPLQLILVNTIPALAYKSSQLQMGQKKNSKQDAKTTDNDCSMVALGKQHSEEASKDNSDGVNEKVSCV

SMILES	Ki [1, 4]	EC50 [2, 5]	Emax [2, 6]	EC50 [3, 7]	Emax [3, 8]	further results
N#Cc1cccc2[nH]nc(C3=CCCNC3)c12 [Example 82, 3-(1,2,5,6-tetrahydropyridin-3-yl)-1H-indazole-4-carbonitrile]	153 nM	12 nM	95.9%	562 nM	87.9%	–
CN1CCC=C(c2c[nH]c3ncc(Cl)cc23)C1 [Example 7, 5-chloro-3-(1-methyl-1,2,5,6-tetrahydropyridin-3-yl)-1H-pyrrolo[2,3-b]pyridine]	209 nM	–	73.4%	18.7 nM	20.7%	EC50 [2, 9]: 56.9 nM
COc1cccc2[nH]cc(C3=CCCNC3)c12 [Example 18, 4-methoxy-3-(1,2,5,6-tetrahydropyridin-3-yl)-1H-indole]	–	3.9 nM	96.1%	–	51.8%	Ki [1, 10]: 50.5 nM; EC50 [3, 11]: 71.2 nM
Fc1cccc2[nH]nc(C3=CCCNC3)c12 [Example 81, 4-fluoro-3-(1,2,5,6-tetrahydropyridin-3-yl)-1H-indazole]	348 nM	26.5 nM	92.3%	211 nM	75.7%	–
N#Cc1cccc2c(C3=CCCNC3)n[nH]c12 [Example 91, 3-(1,2,5,6-tetrahydropyridin-3-yl)-1H-indazole-7-carbonitrile]	237 nM	17.2 nM	126%	105 nM	86%	–
CN1CCC=C(c2n[nH]c3cccc(F)c23)C1 [Example 98, 4-fluoro-3-(1-methyl-1,2,5,6-tetrahydropyridin-3-yl)-1H-indazole]	835 nM	–	58.5%	483 nM	54%	EC50 [2, 9]: 105 nM
Cc1cccc2c(C3=CCCN(C)C3)n[nH]c12 [Example 105, 7-methyl-3-(1-methyl-1,2,5,6-tetrahydropyridin-3-yl)-1H-indazole]	1340 nM	35.4 nM	75.4%	432 nM	45.7%	–
CCCN1CCC=C(c2c[nH]c3c(Cl)cc(F)cc23)C1 [Example 159]	–	–	–	–	–	Ki [1, 12]: 126 nM; EC50 [2, 13]: 17.5 nM; Emax [2, 14]: 90.3%; EC50 [3, 15]: 66.9 nM; Emax [3, 16]: 39.7%
CN1CCC=C(c2c[nH]c3c(Cl)cc(F)cc23)C1 [Example 115, 7-chloro-5-fluoro-3-(1-methyl-1,2,5,6-tetrahydropyridin-3-yl)-1H-indole]	–	51.1 nM	114%	576 nM	59.7%	Ki [1, 10]: 20.8 nM
CN1CCC=C(c2n[nH]c3ccc(Cl)cc23)C1 [Example 101, 5-chloro-3-(1-methyl-1,2,5,6-tetrahydropyridin-3-yl)-1H-indazole]	141 nM	16.2 nM	74.2%	292 nM	80.7%	–
Clc1cccc2c(C3=CCCCNC3)n[nH]c12 [Example 208, 7-chloro-3-(2,5,6,7-tetrahydro-1H-azepin-3-yl)-1H-indazole]	–	–	–	–	–	Ki [1, 12]: > 10000 nM; EC50 [2, 13]: 849 nM; Emax [2, 14]: 95.7%; EC50 [3, 15]: 1900 nM; Emax [3, 16]: 48.9%
Clc1ccc2[nH]cc(C3=CCCNC3)c2c1 [Example 22, 5-chloro-3-(1,2,5,6-tetrahydropyridin-3-yl)-1H-indole]	–	7.2 nM	102%	–	77.3%	Ki [1, 10]: 44.3 nM; EC50 [3, 11]: 78.4 nM
COc1cccc2[nH]nc(C3=CCCNC3)c12 [Example 83, 4-methoxy-3-(1,2,5,6-tetrahydropyridin-3-yl)-1H-indazole]	–	12.5 nM	81.7%	–	75.9%	Ki [1, 10]: 78.8 nM; EC50 [3, 11]: 109 nM
Fc1cccc2c(C3=CCCNC3)n[nH]c12 [Example 90, 7-fluoro-3-(1,2,5,6-tetrahydropyridin-3-yl)-1H-indazole]	1390 nM	9.2 nM	95.6%	–	70%	EC50 [3, 11]: 86 nM
CCCN1CCC=C(c2c[nH]c3c(CC)cccc23)C1 [Example 158, 7-ethyl-3-(1-propyl-1,2,5,6-tetrahydropyridin-3-yl)-1H-indole]	–	–	–	–	–	Ki [1, 12]: 368 nM; EC50 [2, 17]: 78.4 nM; Emax [2, 18]: 82.2%; EC50 [3, 15]: 120 nM; Emax [3, 19]: 32.6%
Clc1cccc2c(C3=CCCN(Cc4ccccc4)C3)c[nH]c12 [Example 67, 3-(1-benzyl-1,2,5,6-tetrahydropyridin-3-yl)-7-chloro-1H-indole]	90.2 nM	–	48.8%	756 nM	46.6%	EC50 [2, 9]: 44.1 nM
Cc1cccc2c(C3=CCCNC3)c[nH]c12 [Example 41, 7-methyl-3-(1,2,5,6-tetrahydropyridin-3-yl)-1H-indole]	1380 nM	–	92.6%	1410 nM	83.2%	EC50 [2, 9]: 234 nM
Clc1cccc2c(C3=CCNC3)n[nH]c12 [Example 206, 7-chloro-3-(2,5-dihydro-1H-pyrrol-3-yl)-1H-indazole]	–	–	–	–	–	Ki [1, 12]: 272 nM; EC50 [2, 17]: 14.4 nM; Emax [2, 18]: 117%; EC50 ([3]; BRET1 beta-arrestin2 recruitment, HEK293T, read-out: 5HT2A β-Arr EC50): 44.8 nM; Emax [3, 19]: 108%
Cc1c(F)ccc2c(C34CNCC3C4)c[nH]c12 (stereo not drawn) [Example 283, 3-(3-azabicyclo[3.1.0]hexan-1-yl)-6-fluoro-7-methyl-1H-indole]	–	–	–	–	–	Ki [1, 12]: 141 nM; EC50 [2, 13]: 88.2 nM; Emax [2, 14]: 104%; EC50 [3, 15]: 797 nM; Emax [3, 16]: 41.5%
CN1CCC=C(c2c[nH]c3c(F)cccc23)C1 [Example 56, 7-fluoro-3-(1-methyl-1,2,5,6-tetrahydropyridin-3-yl)-1H-indole]	–	16.8 nM	96.9%	–	49.5%	Ki [1, 10]: 59.8 nM; EC50 [3, 11]: 57.7 nM
CN1CCC=C(c2n[nH]c3cccc(C#N)c23)C1 [Example 99, 3-(1-methyl-1,2,5,6-tetrahydropyridin-3-yl)-1H-indazole-4-carbonitrile]	491 nM	96.4 nM	80%	1010 nM	43.8%	–
CN1CCC=C(c2c[nH]c3cc(Cl)ccc23)C1 [Example 32, 6-chloro-3-(1-methyl-1,2,5,6-tetrahydropyridin-3-yl)-1H-indole]	236 nM	–	77.5%	709 nM	45.5%	EC50 [2, 9]: 304 nM
CN1CCC=C(c2n[nH]c3c(F)cccc23)C1 [Example 107, 7-fluoro-3-(1-methyl-1,2,5,6-tetrahydropyridin-3-yl)-1H-indazole]	883 nM	–	–	213 nM	–	EC50 [2, 9]: 34.5 nM; Emax ([2]; read-out: 5HT2A Gq Emax (%), BRET2 Gαq dissociation, HEK293T cells, normalized to 5-HT): 68.1%; Emax ([3]; read-out: 5HT2A β-Arr Emax (%), BRET1 beta-arrestin2 recruitment, HEK293T cells, normalized to 5-HT): 36.3%
Clc1ccc2c(C3=CCCNC3)n[nH]c2c1 [Example 77, 6-chloro-3-(1,2,5,6-tetrahydropyridin-3-yl)-1H-indazole]	439 nM	38.9 nM	93.9%	430 nM	76.7%	–
